Data set [1] deals with CHO. The experiment in a line: Cytotoxicity against wild-type CHO cells assessed as growth inhibition after 72 hrs by WST-8 assay. Type of data set: cell-based. To be noted: Cricetulus griseus. Background: Tetrazolium dyes change colour on reduction, which living cells bring about.
Data set [2] deals with Potassium voltage-gated channel subfamily A member 2 (Homo sapiens) (UniProt P16389). The experiment in a line: Inhibition of human Kv 1.2 stably expressed in CHO cells by whole cell patch clamp method. The class given is cell-based. On the technique in general: Patch clamp records ionic current or voltage across a cell membrane.
Data set [3] relates to CHO. The data set is described as follows: Cytotoxicity against CHO cells transfected with human Kv 1.2 assessed as growth inhibition after 72 hrs by WST-8 assay. The class given is cell-based. Particulars: Cricetulus griseus.
Data set [4] has as its system CHO. The data set is described as follows: Induction of leak current in wild-type CHO cells by electrophysiology method. The class given is cell-based, Cricetulus griseus. Particulars: chinese hamster.

In general, IC50 refers to the concentration needed to halve the response being measured.

Potassium voltage-gated channel subfamily A member 2 (Homo sapiens), sequence (P16389 whole entry): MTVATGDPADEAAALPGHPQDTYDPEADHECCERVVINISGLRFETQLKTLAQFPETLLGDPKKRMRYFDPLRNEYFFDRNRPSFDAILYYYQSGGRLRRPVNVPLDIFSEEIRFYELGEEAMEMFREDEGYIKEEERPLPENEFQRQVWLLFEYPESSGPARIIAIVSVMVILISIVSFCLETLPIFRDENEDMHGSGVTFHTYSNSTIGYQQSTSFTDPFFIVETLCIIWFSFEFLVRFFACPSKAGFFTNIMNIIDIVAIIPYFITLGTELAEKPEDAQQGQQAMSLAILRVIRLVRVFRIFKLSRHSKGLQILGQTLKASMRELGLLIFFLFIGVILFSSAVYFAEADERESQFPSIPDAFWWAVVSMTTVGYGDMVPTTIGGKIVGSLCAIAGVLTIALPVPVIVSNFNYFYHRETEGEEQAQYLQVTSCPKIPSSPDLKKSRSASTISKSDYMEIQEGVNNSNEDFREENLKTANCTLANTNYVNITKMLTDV

For `C=CC/C=C\C=C/[C@H]1O[C@H]2C[C@H]3O[C@H]4CC[C@H]5O[C@H]6C[C@@]7(C)O[C@@]8(C)[C@@H](O)C[C@H](CCCO)O[C@@H]8C[C@@H]7O[C@@H]6C[C@@H]5O[C@]4(C)C[C@]3(C)O[C@@H]2C=C[C@]1(C)O`, the IC50 with CHO [1] worked out at 78 µM; in the data set with CHO [3], 95 µM. Further, the inhibition result in data set [2] is “Dose-dependent effect”. In the data set with CHO [4], the Activity result is reported as “Dose-dependent effect”.

For the molecule `C=CC/C=C\C=C/[C@H]1O[C@H]2C[C@H]3O[C@H]4CC[C@H]5O[C@H]6C[C@@]7(C)OCCC[C@@H]7O[C@@H]6C[C@@H]5O[C@]4(C)C[C@]3(C)O[C@@H]2C=C[C@]1(C)O`, the results for the IC50 in the data set with CHO [1] and with CHO [3] were 6 µM and 6.5 µM, respectively.

Take `C=CC/C=C\C=C/[C@H]1O[C@H]2C[C@H]3O[C@H]4CCCCO[C@]4(C)C[C@]3(C)O[C@@H]2C=C[C@]1(C)O`: the IC50 in the data set with CHO [1] and in the data set with CHO [3] was greater than 100 µM throughout.

The values are drawn from ChEMBL document CHEMBL3352731, “Evaluation of gambierol and its analogs for their inhibition of human Kv1.2 and cytotoxicity” (Bioorg Med Chem Lett, 2015).
